Results on 18 compounds are retold here after US8481527B2, “Benzamide derivatives as bradykinin antagonists” (Richter Gedeon Nyrt., priority 2006, dated 2013).

A value given as a limit tells only on which side of the number the result lay.

Test [1] addresses T1, recombinant human B1 receptors (Homo sapiens, UniProt P46663).
T1 construct: host or cells: CHO (CHO-B1)
T1 sequence (P46663 1-353): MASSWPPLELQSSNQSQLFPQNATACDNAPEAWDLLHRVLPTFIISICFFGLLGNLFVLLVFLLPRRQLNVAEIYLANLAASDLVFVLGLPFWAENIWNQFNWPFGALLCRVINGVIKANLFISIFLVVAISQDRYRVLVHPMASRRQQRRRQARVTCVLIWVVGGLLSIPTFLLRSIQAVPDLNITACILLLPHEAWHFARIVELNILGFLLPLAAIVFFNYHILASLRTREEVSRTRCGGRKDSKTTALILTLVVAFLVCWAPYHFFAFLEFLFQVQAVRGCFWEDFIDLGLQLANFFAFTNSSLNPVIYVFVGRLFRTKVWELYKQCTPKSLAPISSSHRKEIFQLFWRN
Nature of the test: Functional assay: antagonist potency by cytosolic calcium measurement in CHO-B1 cells (agonist LysDABK). Type of test: cell-based. Particulars: CHO-B1 cells, LysDABK at EC80, fluo-4 [Ca2+]i; read-out: B1 func. Here is the method: Assessment of Antagonist Potency at B1 and B2 Receptors In Vitro by Measurement of Cytosolic Calcium Ion Concentration with a Plate Reader Fluorimeter in Cells Expressing Recombinant Human B1 or B2 Receptors
Chinese hamster ovary (CHO) cells stably expressing recombinant human B1 (CHO-B1, Euroscreen) or B2 (CHO-B2, Perkin-Elmer) receptors were cultured in Dulbecco's Modified Eagle's Medium (DMEM) containing 10% Fetal Calf Serum (FCS), 100 U/ml penicillin, 0.1 mg/ml streptomycin, 0.25 μg/ml amphotericin B, 1% Minimum Essential Medium Eagle (MEM), non essential amino acid solution, 600 μg/ml G418, 1% pyruvate (for the B2 cell line). Cells were kept at 37° C. in a humidified incubator in an atmosphere of 5% CO2/95% air and were passaged 1:4 three times a week. Cells were plated at 1.5-2.5×10^4 cell/well on standard 96-well microplates, measurements of cytosolic calcium ion concentration ([Ca^2+]i) were carried out 1-2 days after cell plating.
Measurements of [Ca^2+]i were carried out on CHO-B1 and CHO-B2 cells stably expressing human B1 and B2 receptors, respectively. Cells were grown in standard 96-well microplates and before the measurement were loaded with a fluorescent Ca^2+-sensitive dye, fluo-4/AM (2 μM): after removing the culture medium the dye was added to the cells (dissolved in assay buffer: 145 mM NaCl, 5 mM KCl, 2 mM MgCl2, 2 mM CaCl2, 10 mM HEPES, 20 mM D-glucose, 2 mM probenecid, 100 μl/well) and cells were incubated at 37° C. in a humidified incubator in an atmosphere of 5% CO2/95% air for 40-120 min. To stop dye loading cells were washed twice with assay buffer. After washing, various concentrations of the test compounds (diluted in extracellular medium from a DMSO stock solution, final DMSO concentration was <0.1%) or buffer were added to each well depending on the experimental setup. After incubation at 37° C. for 20-25 min. baseline and agonist-evoked changes of [Ca^2+]i were measured column by column with a plate reader fluorimeter (Fluoroskan Ascent, Labsystems). Excitation and detection of emission was carried out from the bottom of the plate. Filters used for Fluo-4: excitation filter—485 nm, emission filter—538 nm. The whole measurement process was performed at 37° C. and was controlled by custom software. Inhibitory potency of the test compounds was assessed by measuring the reduction in the agonist-evoked [Ca^2+]i-elevation in the presence of different concentrations of the compounds. The agonists were LysDABK for CHO-B1, and bradykinin for CHO-B2 cells. Agonists were applied at an EC80 concentration, the EC80-values were derived from daily determined dose-response curves. Fluorescence data were expressed as ΔF/F (fluorescence change normalized to baseline). All treatments on a single plate were measured in multiple wells. Data from all wells with the same treatment were averaged and the average values were used for analysis. Inhibitory potency of a compound at a single concentration point was expressed as percent inhibition of the control agonist response. Sigmoidal concentration-inhibition curves were fitted to the data (derived from at least three independent experiments) and IC50-values were determined as the concentration that produces half of the maximal inhibition caused by the compound.

The target in test [2] is T2, human recombinant bradykinin B1 receptor (Homo sapiens, UniProt P46663).
T2 construct: purchased Euroscreen ES-091; host or cells: CHO cells
T2 sequence (P46663 1-353): T1 sequence (P46663 1-353)
Briefly: Human recombinant bradykinin B1 receptor binding. Particulars: CHO cell membranes, [3H]-[Des-Arg10] Kallidin radioligand; read-out: B1 binding. Here is the method:
Receptor Binding Assays 1. Human Recombinant Bradykinin B1 Receptor Binding
Binding assays were carried out on human recombinant bradykinin) receptors (expressed in CHO cells) according to the Euroscreen Technical Data Sheet (Cat.No.:ES-091). 20 μg protein/tube was incubated with [3,4-prolyl-3,4-^3H(N)]-[Des-Arg^10] Kallidin as radioligand. Non specific binding was determined in the presence of 10 μM Lys-des-Arg^9-Bradykinin. The final incubation volume was 250 μl. Samples were incubated for 15 min. at 25° C. then were rapidly vacuum filtered through GF/B filters presoaked for at least 1 h in 0.5% PEI. Radioactivity was determined by liquid scintillation spectroscopy.

Regarding `O=C(NCC(=O)N1CCN(CCN2CCCC2)CC1)c1ccc(S(=O)(=O)Nc2ccccc2Oc2ccc(Cl)cc2Cl)cc1` [Example 1.1, 4-[2-(2,4-Dichloro-phenoxy)-phenylsulfamoyl]-N-{2-oxo-2-[4-(2-pyrrolidin-1-yl-ethyl)-piperazin-1-yl]-ethyl}-benzamide], the IC50 in test [1] was under 20 nM. Also, the Ki in test [2] is under 20 nM.

In the case of `CN(C)CCN1CCN(C(=O)CNC(=O)c2ccc(S(=O)(=O)Nc3ccccc3Oc3ccc(Cl)cc3Cl)cc2)CC1` [Example 1.2, 4-[2-(2,4-Dichloro-phenoxy)-phenylsulfamoyl]-N-{2-[4-(2-dimethylamino-ethyl)-piperazin-1-yl]-2-oxo-ethyl}-benzamide], in test [1], the IC50 was under 20 nM. The Ki in test [2] is under 20 nM.

`CCN(CC)CCN1CCN(C(=O)CNC(=O)c2ccc(S(=O)(=O)Nc3ccccc3Oc3ccc(Cl)cc3Cl)cc2)CC1` [Example 1.3, 4-[2-(2,4-Dichloro-phenoxy)-phenylsulfamoyl]-N-{2-[4-(2-diethylamino-ethyl)-piperazin-1-yl]-2-oxo-ethyl}-benzamide]: in test [1], the IC50 is under 20 nM. In test [2], the Ki is under 20 nM.

For the compound `O=C(NCC(=O)N1CCN(CCCN2CCCC2)CC1)c1ccc(S(=O)(=O)Nc2ccccc2Oc2ccc(Cl)cc2Cl)cc1` [Example 1.4, 4-[2-(2,4-Dichloro-phenoxy)-phenylsulfamoyl]-N-{2-oxo-2-[4-(3-pyrrolidin-1-yl-propyl)-piperazin-1-yl]-ethyl}-benzamide], the IC50 in test [1] was under 20 nM. In test [2], the Ki was under 20 nM.

`CN1CCCC(CN2CCN(C(=O)CNC(=O)c3ccc(S(=O)(=O)Nc4ccccc4Oc4ccc(Cl)cc4Cl)cc3)CC2)C1` (stereo not drawn) [Example 1.5, 4-[2-(2,4-Dichloro-phenoxy)-phenylsulfamoyl]-N-{2-[4-(1-methyl-piperidin-3-ylmethyl)-piperazin-1-yl]-2-oxo-ethyl}-benzamide]: the IC50 in test [1] is under 20 nM. For the same compound, the Ki in test [2] is under 20 nM.

Take `O=C(NCC(=O)N1CCC(CCN2CCCC2)CC1)c1ccc(S(=O)(=O)Nc2ccccc2Oc2ccc(Cl)cc2Cl)cc1` [Example 1.6, 4-[2-(2,4-Dichloro-phenoxy)-phenylsulfamoyl]-N-{2-oxo-2-[4-(2-pyrrolidin-1-yl-ethyl)-piperidin-1-yl]-ethyl}-benzamide]: the IC50 in test [1] is under 20 nM. Further, in test [2], the Ki is under 20 nM.

For the compound `O=C(NCC(=O)N1CCN(c2ncccn2)CC1)c1ccc(S(=O)(=O)Nc2ccccc2Oc2ccc(Cl)cc2Cl)cc1` [Example 1.7, 4-[2-(2,4-Dichloro-phenoxy)-phenylsulfamoyl]-N-[2-oxo-2-(4-pyrimidin-2-yl-piperazin-1-yl)-ethyl]-benzamide], the IC50 in test [1] was under 20 nM. In addition, the Ki in test [2] was under 20 nM.

In the case of `O=C(NCC(=O)N1CCCN(CCCN2CCOCC2)CC1)c1ccc(S(=O)(=O)Nc2ccccc2Oc2ccc(Cl)cc2Cl)cc1` [Example 1.8, 4-[2-(2,4-Dichloro-phenoxy)-phenylsulfamoyl]-N-{2-[4-(3-morpholin-4-yl-propyl)-[1,4]diazepan-1-yl]-2-oxo-ethyl}-benzamide], in test [1], the IC50 is under 20 nM. Further, the Ki in test [2] was under 20 nM.

In the case of `O=C(NCC(=O)N1CCN(CCCN2CCCCC2)CC1)c1ccc(S(=O)(=O)Nc2ccccc2Oc2ccc(Cl)cc2Cl)cc1` [Example 1.9, 4-[2-(2,4-Dichloro-phenoxy)-phenylsulfamoyl]-N-{2-oxo-2-[4-(3-piperidin-1-yl-propyl)-piperazin-1-yl]-ethyl}-benzamide], the IC50 in test [1] is under 20 nM. The Ki in test [2] is under 20 nM.

Turning to `CN(C)CCCN1CCN(C(=O)CNC(=O)c2ccc(S(=O)(=O)Nc3ccccc3Oc3ccc(Cl)cc3Cl)cc2)CC1` [Example 1.10, 4-[2-(2,4-Dichloro-phenoxy)-phenylsulfamoyl]-N-{2-[4-(3-dimethylamino-propyl)-piperazin-1-yl]-2-oxo-ethyl}-benzamide], the IC50 in test [1] is under 20 nM. In test [2], the Ki was under 20 nM.

Turning to `O=C(NCC(=O)N1CCCN(CCCN2CCCC2)CC1)c1ccc(S(=O)(=O)Nc2ccccc2Oc2ccc(Cl)cc2Cl)cc1` [Example 1.11, 4-[2-(2,4-Dichloro-phenoxy)-phenylsulfamoyl]-N-{2-oxo-2-[4-(3-pyrrolidin-1-yl-propyl)-[1,4]diazepan-1-yl]-ethyl}-benzamide], the IC50 in test [1] is under 20 nM. For the same compound, in test [2], the Ki was under 20 nM.

As to `O=C(NCC(=O)N1CCN(CCCN2CCOCC2)CC1)c1ccc(S(=O)(=O)Nc2ccccc2Oc2ccc(Cl)cc2Cl)cc1` [Example 1.12, 4-[2-(2,4-Dichloro-phenoxy)-phenylsulfamoyl]-N-{2-[4-(3-morpholin-4-yl-propyl)-piperazin-1-yl]-2-oxo-ethyl}-benzamide], the IC50 in test [1] is under 20 nM. Besides, the Ki in test [2] was under 20 nM.

With `O=C(NCC(=O)N1CCN(CCN2CCCCC2)CC1)c1ccc(S(=O)(=O)Nc2ccccc2Oc2ccc(Cl)cc2Cl)cc1` [Example 1.13, 4-[2-(2,4-Dichloro-phenoxy)-phenylsulfamoyl]-N-{2-oxo-2-[4-(2-piperidin-1-yl-ethyl)-piperazin-1-yl]-ethyl}-benzamide], the IC50 in test [1] was under 20 nM. The Ki in test [2] is under 20 nM.

Regarding `O=C(NCC(=O)N1CCC(N2CCCC2)CC1)c1ccc(S(=O)(=O)Nc2ccccc2Oc2ccc(Cl)cc2Cl)cc1` [Example 1.21, 4-[2-(2,4-Dichloro-phenoxy)-phenylsulfamoyl]-N-[2-oxo-2-(4-pyrrolidin-1-yl-piperidin-1-yl)-ethyl]-benzamide], in test [1], the IC50 is under 20 nM. Moreover, in test [2], the Ki was under 20 nM.

Take `O=C(NCC(=O)N1CCC(O)CC1)c1ccc(S(=O)(=O)Nc2ccccc2Oc2ccc(Cl)cc2Cl)cc1` [Example 1.22, 4-[2-(2,4-Dichloro-phenoxy)-phenylsulfamoyl]-N-[2-(4-hydroxy-piperidin-1-yl)-2-oxo-ethyl]-benzamide]: in test [1], the IC50 is under 20 nM. In addition, the Ki in test [2] is under 20 nM.

Turning to `O=C(NCC(=O)N1CCN(CCN2CCCC2)CC1)c1ccc(S(=O)(=O)Nc2ccccc2Oc2ccccc2)cc1` [Example 2.2, N-{2-Oxo-2-[4-(2-pyrrolidin-1-yl-ethyl)-piperazin-1-yl]-ethyl}-4-(2-phenoxy-phenylsulfamoyl)-benzamide], the IC50 in test [1] was under 20 nM. The Ki in test [2] was under 20 nM.

As to `CN(C)CCN1CCN(C(=O)CNC(=O)c2ccc(S(=O)(=O)Nc3ccccc3Oc3ccccc3)cc2)CC1` [Example 2.3, N-{2-[4-(2-Dimethylamino-ethyl)-piperazin-1-yl]-2-oxo-ethyl}-4-(2-phenoxy-phenylsulfamoyl)-benzamide], the IC50 in test [1] is under 20 nM. Besides, the Ki in test [2] is under 20 nM.

With `CCN(CC)CCN1CCN(C(=O)CNC(=O)c2ccc(S(=O)(=O)Nc3ccccc3Oc3ccccc3)cc2)CC1` [Example 2.4, N-{2-[4-(2-Diethylamino-ethyl)-piperazin-1-yl]-2-oxo-ethyl}-4-(2-phenoxy-phenylsulfamoyl)-benzamide], the IC50 in test [1] was under 20 nM. Besides, the Ki in test [2] is under 20 nM.
